Measured values as given in PubChem BioAssay AID1963865 (Molecular Pharmacology Branch, DTP, NCI, 2024).

Test system: KRAS PDC multicell spheroid viability
Assay: Anticancer human tumor 825966-067-R-J1-PDC patient-derived colon carcinoma cell line growth inhibition [KRAS2]
Settings: for IC50: curve of first compound; for viability, T/C: stronger effect = lower value
How it was run: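 Combination screen of spheroid viability in tumor-cell co-cultures with endothelial (HUVEC) and mesenchymal stem cell stroma. Each agent was tested in half-log dilutions, topping at clinical Cmax or at 10 microM without a known Cmax.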

[1] = second compound 0.0316 µM, first compound 0.000316 µM
[2] = second compound 0.0316 µM, first compound 0.001 µM
[3] = second compound 0.0316 µM, first compound 0.00316 µM
[4] = second compound 0.0316 µM, first compound 0.01 µM
[5] = second compound 0.0316 µM, first compound 0.0316 µM
[6] = second compound 0.1 µM, first compound 0.000316 µM
[7] = second compound 0.1 µM, first compound 0.001 µM
[8] = second compound 0.1 µM, first compound 0.00316 µM
[9] = second compound 0.1 µM, first compound 0.01 µM
[10] = second compound 0.1 µM, first compound 0.0316 µM
[11] = second compound 0.316 µM, first compound 0.000316 µM
[12] = second compound 0.316 µM, first compound 0.001 µM
[13] = second compound 0.316 µM, first compound 0.00316 µM
[14] = second compound 0.316 µM, first compound 0.01 µM
[15] = second compound 0.316 µM, first compound 0.0316 µM
[16] = second compound 1 µM, first compound 0.000316 µM
[17] = second compound 1 µM, first compound 0.001 µM
[18] = second compound 1 µM, first compound 0.00316 µM
[19] = second compound 1 µM, first compound 0.01 µM
[20] = second compound 1 µM, first compound 0.0316 µM
[21] = second compound 3.16 µM, first compound 0.000316 µM
[22] = second compound 3.16 µM, first compound 0.001 µM
[23] = second compound 3.16 µM, first compound 0.00316 µM
[24] = second compound 3.16 µM, first compound 0.01 µM
[25] = second compound 3.16 µM, first compound 0.0316 µM
[26] = second compound 0.0316 µM, first compound 0.1 µM
[27] = second compound 0.1 µM, first compound 0.1 µM
[28] = second compound 0.316 µM, first compound 0.1 µM
[29] = second compound 1 µM, first compound 0.1 µM
[30] = second compound 3.16 µM, first compound 0.1 µM
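Note: spheroids exposed to compounds for 7 days.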
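Throughout, for viability, T/C: 100% = DMSO vehicle control viability.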

With `CC(=O)Nc1cccc(-n2c(=O)n(C3CC3)c(=O)c3c(Nc4ccc(I)cc4F)n(C)c(=O)c(C)c32)c1` + C=CC(=O)N1CCN(c2nc(OCC3CCCN3C)nc3c2CCN(c2cccc4cccc(C)c24)C3)CC1CC#N the IC50 (second compound 0.0316 µM) was 31.6 nM, the IC50 (second compound 0.1 µM) was > 31.6 nM and the IC50 (second compound 0.316 µM) was 23.1 nM. For the same molecule, the IC50 (second compound 1 µM) was > 31.6 nM, the IC50 (second compound 3.16 µM) was 5.99 nM and the viability, T/C (second compound 0.0316 µM, first compound 0.0001 µM) was 92%. For the same molecule, the viability, T/C [1] was 94.8%, the viability, T/C [2] was 119% and the viability, T/C [3] was 128%. It also gave a viability, T/C [4] of 101%, a viability, T/C [5] of 49.8% and a viability, T/C (second compound 0.1 µM, first compound 0.0001 µM) of 84%. It also gave a viability, T/C [6] of 92.6%, a viability, T/C [7] of 97.5% and a viability, T/C [8] of 111%. The viability, T/C [9] was 94.9%, the viability, T/C [10] was 50.5% and the viability, T/C (second compound 0.316 µM, first compound 0.0001 µM) was 83.6%. It also gave a viability, T/C [11] of 92.1%, a viability, T/C [12] of 96.7% and a viability, T/C [13] of 110%. The viability, T/C [14] was 92.1%, the viability, T/C [15] was 33.9% and the viability, T/C (second compound 1 µM, first compound 0.0001 µM) was 110%. It also gave a viability, T/C [16] of 95%, a viability, T/C [17] of 102% and a viability, T/C [18] of 106%. The viability, T/C [19] was 71.4%, the viability, T/C [20] was 53.4% and the viability, T/C (second compound 3.16 µM, first compound 0.0001 µM) was 62.2%. For the same molecule, the viability, T/C [21] was 107%, the viability, T/C [22] was 105% and the viability, T/C [23] was 121%. The viability, T/C [24] was 5.74% and the viability, T/C [25] was 16.1%.

With `CC(=O)OC12COC1CC(O)C1(C)C(=O)C(O)C3=C(C)C(OC(=O)C(O)C(NC(=O)OC(C)(C)C)c4ccccc4)CC(O)(C(OC(=O)c4ccccc4)C21)C3(C)C` (stereo not given) + C=CC(=O)N1CCN(c2nc(OCC3CCCN3C)nc3c2CCN(c2cccc4cccc(C)c24)C3)CC1CC#N the IC50 (second compound 0.0316 µM) was < 10 nM, the IC50 (second compound 0.1 µM) was < 10 nM and the IC50 (second compound 0.316 µM) was < 10 nM. For the same molecule, the IC50 (second compound 1 µM) was < 10 nM, the IC50 (second compound 3.16 µM) was < 10 nM and the viability, T/C [4] was 24.8%. It also gave a viability, T/C [5] of 28%, a viability, T/C [26] of 23.1% and a viability, T/C (second compound 0.0316 µM, first compound 0.316 µM) of 23.1%. The viability, T/C (second compound 0.0316 µM, first compound 1 µM) was 24.5%, the viability, T/C (second compound 0.0316 µM, first compound 3.16 µM) was 40.3% and the viability, T/C [9] was 27%. For the same molecule, the viability, T/C [10] was 29.6%, the viability, T/C [27] was 32.1% and the viability, T/C (second compound 0.1 µM, first compound 0.316 µM) was 22%. It also gave a viability, T/C (second compound 0.1 µM, first compound 1 µM) of 28.6%, a viability, T/C (second compound 0.1 µM, first compound 3.16 µM) of 35.9% and a viability, T/C [14] of 23%. For the same molecule, the viability, T/C [15] was 21.2%, the viability, T/C [28] was 25.4% and the viability, T/C (second compound 0.316 µM, first compound 0.316 µM) was 24.5%. It also gave a viability, T/C (second compound 0.316 µM, first compound 1 µM) of 26.2%, a viability, T/C (second compound 0.316 µM, first compound 3.16 µM) of 27.3% and a viability, T/C [19] of 28.6%. The viability, T/C [20] was 25%, the viability, T/C [29] was 30% and the viability, T/C (second compound 1 µM, first compound 0.316 µM) was 20%. It also gave a viability, T/C (second compound 1 µM, first compound 1 µM) of 27%, a viability, T/C (second compound 1 µM, first compound 3.16 µM) of 26.1% and a viability, T/C [24] of 31.7%. For the same molecule, the viability, T/C [25] was 23.2%, the viability, T/C [30] was 21.2% and the viability, T/C (second compound 3.16 µM, first compound 0.316 µM) was 23.8%. The viability, T/C (second compound 3.16 µM, first compound 1 µM) was 17.2% and the viability, T/C (second compound 3.16 µM, first compound 3.16 µM) was 29.6%.

With `CN(C)C/C=C/C(=O)Nc1cc2c(Nc3ccc(F)c(Cl)c3)ncnc2cc1O[C@H]1CCOC1` + C=CC(=O)N1CCN(c2nc(OCC3CCCN3C)nc3c2CCN(c2cccc4cccc(C)c24)C3)CC1CC#N the IC50 (second compound 0.0316 µM) was > 100 nM, the IC50 (second compound 0.1 µM) was > 100 nM and the IC50 (second compound 0.316 µM) was > 100 nM. For the same molecule, the IC50 (second compound 1 µM) was > 100 nM, the IC50 (second compound 3.16 µM) was > 100 nM and the viability, T/C [1] was 92%. It also gave a viability, T/C [2] of 105%, a viability, T/C [3] of 86% and a viability, T/C [4] of 83.4%. For the same molecule, the viability, T/C [5] was 94.5%, the viability, T/C [26] was 99.7% and the viability, T/C [6] was 114%. It also gave a viability, T/C [7] of 107%, a viability, T/C [8] of 100% and a viability, T/C [9] of 94.3%. For the same molecule, the viability, T/C [10] was 86.8%, the viability, T/C [27] was 88% and the viability, T/C [11] was 100%. The viability, T/C [12] was 107%, the viability, T/C [13] was 74.8% and the viability, T/C [14] was 83.8%. It also gave a viability, T/C [15] of 77%, a viability, T/C [28] of 81.4% and a viability, T/C [16] of 94.7%. The viability, T/C [17] was 84.9%, the viability, T/C [18] was 89.3% and the viability, T/C [19] was 98.7%. For the same molecule, the viability, T/C [20] was 107%, the viability, T/C [29] was 77.5% and the viability, T/C [21] was 111%. For the same molecule, the viability, T/C [22] was 83.6%, the viability, T/C [23] was 87.5% and the viability, T/C [24] was 100%. For the same molecule, the viability, T/C [25] was 67.7% and the viability, T/C [30] was 114%.
